Results on nine molecules are retold here after ChEMBL document CHEMBL1201862, “PubChem BioAssay data set” (2004).

Molecules are shown by their SMILES.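 Test compounds were applied to cells in 96-well plates for 48 hours at 5 doses. GI50: concentration for 50% inhibition of growth.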 The source made the active and inactive calls. Cut-off read from the data, not from the text of the source: active = GI50 up to about 1.1 µM and inactive = higher.

Some test systems named below: TK-10; UACC-257; UO-31; Malme-3M; SK-OV-3; MOLT-4; HOP-92; COLO 205; SF-295; CAKI-1; KM12; 786-0; SW-620; NCI-H460; HCC 2998; OVCAR-4; HCT-15.
Assay in all cases: NCI-60 cell line screen, 48 h

For `CS/C(=N\c1nccs1)NC(=O)c1cccc(Cl)c1`, the GI50 in the experiment with TK-10 was 73.5 µM (inactive); with UACC-257 it was > 100 µM (inactive); in the experiment with UO-31, 62.4 µM (inactive); in the experiment with Malme-3M, > 100 µM (inactive); in the experiment with SK-OV-3, > 100 µM (inactive); in the experiment with MOLT-4, 31 µM (inactive). The GI50 in the experiment on HOP-92 was 71.3 µM (inactive); with COLO 205 it was 46.1 µM (inactive); in the experiment on SF-295 it was 77.8 µM (inactive); with CAKI-1, 50.5 µM (inactive); in the experiment on KM12 it was > 100 µM (inactive); with 786-0, > 100 µM (inactive). The GI50 with SW-620 was > 100 µM (inactive); in the experiment on NCI-H460 it was > 100 µM (inactive); with HCC 2998, > 100 µM (inactive); with OVCAR-4, 68.1 µM (inactive); in the experiment on HCT-15, 24.9 µM.
Take `COC(=O)C1(O)c2ccccc2N=C2C1CCN2C` (configuration not stated): the GI50 in the experiment on TK-10, in the experiment with UACC-257, in the experiment with UO-31, in the experiment on Malme-3M, with SK-OV-3 and with MOLT-4 was > 100 µM (inactive) in each case. Further, the GI50 in the experiment on HOP-92, in the experiment with COLO 205, in the experiment with SF-295, with CAKI-1, with KM12 and in the experiment with 786-0 was > 100 µM (inactive) each time. Moreover, the GI50 in the experiment with SW-620 is > 100 µM (inactive); in the experiment with NCI-H460 it was > 100 µM (inactive); with HCC 2998 it was > 100 µM (inactive); with OVCAR-4, > 100 µM (inactive); with HCT-15, > 100 µM.
On to `COC(=O)C1CSC(c2csc(CCN)n2)=N1` (configuration not stated), for which the GI50 in the experiment with TK-10, with UACC-257, in the experiment on UO-31, in the experiment with Malme-3M, with SK-OV-3 and in the experiment on MOLT-4 was > 100 µM (inactive) in each case. Besides, the GI50 in the experiment with HOP-92, with COLO 205, in the experiment with SF-295, in the experiment with CAKI-1, in the experiment on KM12 and in the experiment with 786-0 was > 100 µM (inactive) in each case. Besides, the GI50 with SW-620 is > 100 µM (inactive); in the experiment with NCI-H460, > 100 µM (inactive); in the experiment with HCC 2998 it was > 100 µM (inactive); with OVCAR-4, > 100 µM (inactive); in the experiment on HCT-15, > 100 µM.
As to `CCOC(=O)NC(=O)c1cn(C2CCCCC2)c(=O)[nH]c1=O`, the GI50 in the experiment with TK-10 was > 100 µM (inactive); in the experiment on UACC-257, > 100 µM (inactive); in the experiment on UO-31 it was 56 µM (inactive); in the experiment with Malme-3M, > 100 µM (inactive); in the experiment with SK-OV-3, 77.3 µM (inactive); with MOLT-4 it was 41.8 µM (inactive). Besides, the GI50 with HOP-92 is > 100 µM (inactive); in the experiment with COLO 205, 98.9 µM (inactive); in the experiment with SF-295 it was 94 µM (inactive); with CAKI-1, > 100 µM (inactive); in the experiment with KM12 it was 78.2 µM (inactive); in the experiment with 786-0, 24.7 µM (inactive). For the same molecule, the GI50 was 17.4 µM (inactive) with SW-620; 32.2 µM (inactive) in the experiment on NCI-H460; 53.6 µM (inactive) with HCC 2998; 67.6 µM (inactive) in the experiment with OVCAR-4; 53.8 µM in the experiment on HCT-15.
`N#CCc1nc2c(s1)C(=O)c1ccccc1C2=O`: the GI50 was 21.8 µM (inactive) in the experiment with TK-10; 15.2 µM (inactive) in the experiment with UACC-257; 15.5 µM (inactive) with UO-31; 19.9 µM (inactive) in the experiment on Malme-3M; > 100 µM (inactive) in the experiment with SK-OV-3; 1.22 µM (inactive) in the experiment with MOLT-4. The GI50 was 18.5 µM (inactive) in the experiment on HOP-92; 18.7 µM (inactive) in the experiment on COLO 205; 19.4 µM (inactive) with SF-295; 22.2 µM (inactive) in the experiment with CAKI-1; 18.5 µM (inactive) in the experiment with KM12; 16.4 µM (inactive) in the experiment with 786-0. In addition, the GI50 with SW-620 is 19.1 µM (inactive); with NCI-H460, 21.7 µM (inactive); in the experiment on HCC 2998 it was 19.9 µM (inactive); in the experiment with OVCAR-4, 16.9 µM (inactive); with HCT-15, 16.3 µM.
Consider `CC(C)(C)C(=O)C(c1ccc(-c2cscn2)cc1)c1ccc(-c2cscn2)cc1`, for which the GI50 was 31.9 µM (inactive) in the experiment on TK-10; 76 µM (inactive) in the experiment on UACC-257; 44.4 µM (inactive) with UO-31; > 56.4 µM (inactive) in the experiment with Malme-3M; 29.8 µM (inactive) in the experiment on SK-OV-3; > 100 µM (inactive) in the experiment on MOLT-4. Also, the GI50 in the experiment on HOP-92 was 9.55 µM (inactive); in the experiment on COLO 205, > 89.7 µM (inactive); in the experiment with SF-295, 18.1 µM (inactive); in the experiment on CAKI-1, 33.4 µM (inactive); with KM12, > 83.9 µM (inactive); in the experiment on 786-0 it was 21.5 µM (inactive). Also, the GI50 with SW-620 was > 100 µM (inactive); with NCI-H460, 40.5 µM (inactive); with HCC 2998, > 100 µM (inactive); with OVCAR-4, 3.25 µM (inactive); in the experiment on HCT-15, > 95.1 µM.
For the molecule `NC(=S)NNc1c([N+](=O)[O-])cnn(-c2ccccc2)c1=O`, the GI50 with TK-10 was 24 µM (inactive); in the experiment on UACC-257, 22.9 µM (inactive); in the experiment with UO-31, 23.4 µM (inactive); in the experiment on Malme-3M, 19.2 µM (inactive); with SK-OV-3 it was 21.6 µM (inactive); with MOLT-4 it was 12.6 µM (inactive). The GI50 in the experiment with HOP-92 is 19.9 µM (inactive); with COLO 205, 13.1 µM (inactive); in the experiment on SF-295 it was 15.1 µM (inactive); in the experiment on CAKI-1, 19.6 µM (inactive); with KM12, 14.7 µM (inactive); in the experiment on 786-0 it was 20.3 µM (inactive). Also, the GI50 with SW-620 is 13.1 µM (inactive); in the experiment with NCI-H460 it was 17.9 µM (inactive); with HCC 2998, 18.7 µM (inactive); with OVCAR-4, 17.4 µM (inactive); in the experiment on HCT-15 it was 17.3 µM.
On to `CCOC(=O)NC(=O)c1cn(CCCOC(=O)NCCCCCCNC(=O)OCCCn2c(=O)c(C(=O)NC(=O)OCC)cn(C)c2=O)c(=O)n(C)c1=O`, for which the GI50 with TK-10 is 88.7 µM (inactive); in the experiment with UACC-257 it was > 100 µM (inactive); with UO-31, > 100 µM (inactive); in the experiment on Malme-3M it was > 100 µM (inactive); in the experiment on SK-OV-3 it was > 100 µM (inactive); in the experiment with MOLT-4 it was > 100 µM (inactive). Besides, the GI50 with HOP-92, in the experiment on COLO 205, in the experiment with CAKI-1, in the experiment on KM12, in the experiment with 786-0 and in the experiment with SW-620 was > 100 µM (inactive) each time. Moreover, the GI50 in the experiment with NCI-H460 was > 100 µM (inactive); in the experiment with HCC 2998, > 100 µM (inactive); with OVCAR-4, > 100 µM (inactive); with HCT-15, > 100 µM.
Take `CCOC(=O)C(=O)Nc1nc2ccc(OC)cc2s1`: the GI50 in the experiment on TK-10, with UACC-257, with UO-31, with Malme-3M, in the experiment with SK-OV-3 and in the experiment with MOLT-4 was > 100 µM (inactive) in each case. The GI50 in the experiment with HOP-92, in the experiment with COLO 205, with SF-295, in the experiment with CAKI-1, with KM12 and in the experiment on 786-0 was > 100 µM (inactive) in each case. Also, the GI50 was > 100 µM (inactive) with SW-620; > 100 µM (inactive) in the experiment on NCI-H460; > 100 µM (inactive) in the experiment on HCC 2998; > 100 µM (inactive) with OVCAR-4; > 100 µM with HCT-15.
